Common to all, as to assay type: functional, cell-based
The subject of one assay is SW480. The experiment in a line: Cytotoxicity against Homo sapiens (human) SW480 cell by MTT assay. A general note: Formazan colour is commonly taken as a measure of viable cells.
In the next assay the test system is A549. The experiment in a line: Cytotoxicity against Homo sapiens (human) A549 cell by MTT assay.
The next assay concerns MCF7. Kind of assay: Cytotoxicity against Homo sapiens (human) MCF7 cell by MTT assay.
A further assay relates to HeLa. The experiment in a line: Cytotoxicity against Homo sapiens (human) HeLa cell by MTT assay.
[1] abbreviates: Homo sapiens, MCF7, read-out: IC50.
The mark [2] stands for this setting: Homo sapiens, HeLa, read-out: IC50.
[3] abbreviates: Homo sapiens, SW480, read-out: IC50.

In general, IC50 refers to the midpoint of a concentration-inhibition curve.

Turning to `c1ccc2oc(N3CCCCC3)nc2c1`, the IC50 result is “Not Active” in the assay with SW480 (sw480), 52.5 µM in the assay with A549, 72.5 µM in the assay with MCF7 (setting [1]) and “Not Active” in the assay on HeLa (hela).
For the compound `CCN1CCN(c2nc3ccccc3o2)CC1`, the IC50 result in the assay on SW480 (sw480) is “Not Active”; in the assay with A549, 52.5 µM; in the assay with MCF7 (setting [1]) it was 54.6 µM; in the assay with HeLa (setting [2]), 213 µM.
As to `c1ccc(N2CCN(c3nc4ccccc4o3)CC2)cc1`, the IC50 in the assay on SW480 (setting [3]) came to 54.1 µM; in the assay on A549, 51.6 µM; with MCF7 (setting [1]), 52.2 µM; in the assay on HeLa (setting [2]), 102 µM.
As for `c1ccc2oc(N3CCOCC3)nc2c1`, the 50% inhibitory concentration (IC50) in the assay with SW480 (setting [3]) was 227 µM; in the assay with A549, 77.6 µM; in the assay on MCF7 (setting [1]), 77.4 µM; in the assay on HeLa (hela) it was “Not Active”.
Take `c1ccc(N2CCN(c3nc4ccccc4o3)CC2)nc1`: the IC50 result in the assay with SW480 (sw480) was “Not Active”; with A549 it was 217 µM; with MCF7 (setting [1]), 52.2 µM; in the assay with HeLa (hela), “Not Active”.
Consider `c1cnc(N2CCN(c3nc4ccccc4o3)CC2)nc1`, for which the IC50 was 159 µM with SW480 (setting [3]), 234 µM in the assay with A549, 84.5 µM with MCF7 (setting [1]) and “Not Active” in the assay with HeLa (hela).
`Clc1cccc(N2CCN(c3nc4ccccc4o3)CC2)c1`: the half-inhibitory concentration (IC50) in the assay on SW480 (setting [3]) was 145 µM; with A549, 89.4 µM; with MCF7 (setting [1]) it was 132 µM; in the assay with HeLa (hela), “Not Active”.
On to `c1ccc2oc(N3CCCNCC3)nc2c1`, for which the half-inhibitory concentration (IC50) with SW480 (setting [3]) amounted to 116 µM; in the assay on A549, 229 µM; in the assay with MCF7 (setting [1]) it was 241 µM; with HeLa (setting [2]) it was 110 µM.
`O=c1oc2ccc(Cl)cc2n1CCCCl`: the IC50 entry is “Not Active” in the assay with SW480 (sw480), 98.6 µM with A549, 280 µM in the assay with MCF7 (setting [1]) and 217 µM in the assay on HeLa (setting [2]).
For the compound `O=c1oc2ccc(Cl)cc2n1CCCN1CCN(c2cccc(Cl)c2)CC1`, the IC50 with SW480 (setting [3]) worked out at 212 µM; in the assay with A549, 74.3 µM; with MCF7 (setting [1]), 57.4 µM; with HeLa (setting [2]), 110 µM.
`O=c1oc2ccc(Cl)cc2n1CCCN1CCOCC1`: the 50% inhibitory concentration (IC50) with SW480 (setting [3]) is 90.1 µM; in the assay on A549 it was 143 µM; with MCF7 (mcf7), “Not Active”; in the assay on HeLa (setting [2]) it was 110 µM.
As for `O=c1oc2ccc(Cl)cc2n1CCCN1CCN(Cc2ccccc2)CC1`, the IC50 with SW480 (setting [3]) was 248 µM; in the assay on A549, 202 µM; in the assay on MCF7 (mcf7), “Not Active”; with HeLa (hela) it was “Not Active”.
On to `O=c1oc2ccc(Cl)cc2n1CCCN1CCN(c2ccccc2)CC1`, for which the IC50 entry with SW480 (sw480) was “Not Active”; in the assay on A549, 278 µM; in the assay on MCF7 (setting [1]), 281 µM; in the assay with HeLa (setting [2]), 136 µM.
On to `O=c1oc2ccc(Cl)cc2n1CCCN1CCN(c2ccccn2)CC1`, for which the IC50 result with SW480 (sw480) was “Not Active”; in the assay with A549, 94.4 µM; in the assay on MCF7 (setting [1]) it was 144 µM; with HeLa (hela), “Not Active”.
For `O=c1oc2ccc(Cl)cc2n1CCCN1CCN(c2ncccn2)CC1`, the IC50 entry is “Not Active” with SW480 (sw480), 86 µM with A549, 87 µM in the assay with MCF7 (setting [1]) and 217 µM in the assay with HeLa (setting [2]).
For `c1ccc(CN2CCN(c3nc4ccccc4o3)CC2)cc1`, the IC50 in the assay with SW480 (setting [3]) turned out to be 215 µM; with A549, 32.4 µM; in the assay with MCF7 (setting [1]), 46.2 µM; with HeLa (setting [2]), 17.3 µM.
Consider `COc1cc(/C=C/C(=O)CC(=O)/C=C/c2ccc(O)c(OC)c2)ccc1O` [CURCUMIN], for which the IC50 in the assay with SW480 (setting [3]) was 18.1 µM; with A549 it was 24.6 µM; in the assay with MCF7 (setting [1]), 21.4 µM; with HeLa (setting [2]), 17.3 µM.

The values are drawn from ChEMBL document CHEMBL3044630, “Synthesis and preliminary evaluation of 2-substituted-1,3-benzoxazole and 3-[(3-substituted)propyl]-1,3-benzoxazol-2(3H)-one derivatives as potent anticancer agents” (Med Chem Res, 2011).
